Measured values as given in patent US12582618B2, “Bis-biguanide compounds, pharmaceutical compositions and uses in managing cancer” (Emory University, priority 2019, dated 2026).

Tested on: leader cell sub-population (H1299 leader cells)
Assay: drug screening of rare lung cancer cells isolated by spatiotemporal genomic and cellular analysis (SaGA)
Assay type: cell-based, human
Details: rare lung cancer cells identified by SaGA, then drug screening; see FIG. 2A
Description: See e.g., Burrell et al., Nature, 2013, 501:338-345. Spatiotemporal genomic and cellular analysis (SaGA) is a technique which involves a combination of microscopy and genomics to isolate rare cells. See Konen et al. Nat Comm, 2017, 8:15078. Dendra2 is a photoconvertible fluorophore which emits green fluorescence. However, when excited by 405 nm light, green fluorescence is converted to red fluorescence due to cleavage of a histidine. Therefore, with single cell precision, any cancer cell expressing Dendra2 can be optically highlighted (turned red) using a point scanning confocal microscope. A region of interest is drawn around the cell(s) of interest, based upon by transmitted light or fluorescent protein tags. This region can be exposed to a 405 nm laser, resulting in near instantaneous photoconversion of Dendra2, and photomarking the cell red. Single cells can be photoconverted, without inducing any measurable photoconversion of neighboring cells. Cells are extracted from the 3-D environment using dispase for 15 minutes (collagenase for collagen). Cells are then sorted to separate red photoconverted cells from green cells using a FACS. Isolated cells are grown in culture using standard cell culture techniques. Spatiotemporal genomic and cellular analysis (SaGA) was used to identify rare lung cancer cells which were then subject to drug screening.

Question: Which “effect on metastasis / invasive cell pack” value does the source give for `CCCCC(CC)CNC(=N)NC(=N)NCCCCCCNC(=N)NC(=N)NCC(CC)CCCC` (stereo not shown) [alexidine, 1,1′-(hexane-1,6-diyl)bis(5-(2-ethylhexyl)biguanidine)] here?
Answer: Its value is “disrupt metastasis by targeting a rare cell type within the invasive cell pack”.
